# Assay results reported in patent US20070166696A1, “Adenovirus-transfected primary cells and methods of pathway mapping” (SANOFI-AVENTIS U.S. LLC, priority 2003, published 2007).
# Key:
# Type in all cases: cell-based, human
# NFκB cis-element = experiment: Adenovirus luciferase reporter in iDCs; settings: LPS 1 μg/ml, 2, 4, 8, 24 hours time course
# Procedure: (§1) After a certain amount of time post stimulation, the cells are collected and luciferase activity is measured. Luciferase activity can be measured by an enzyme assay using a photon generating substrate and detecting photons by luminometer.
# (§2) Similar experiments were performed for in vitro differentiated dendritic cells (“iDCs”). In this example, iDCs are obtained as follows: First, peripheral blood mononuclear cells (“PBMCs”) are obtained by density gradient centrifugation. One density gradient centrifugation medium is FICOLL PAQUE, commercially available from Amersham Biosciences. Monocytes are then isolated from the PBMCs by magnetic depletion of non-monocytes. Finally, iDCs are isolated from the monocytes by treatment of the monocytes with ILA and GM-GSF for 6 days.
# (§3) In this example, resting cultures of isolated iDCs are then infected with a recombinant adenovirus containing the luciferase gene which is transcribed under the control of a specific cis-element. In this example, three recombinant adenovirus constructs are used to infect three separate cultures of iDCs, each construct containing one of three cis-elements: AP-1, NFκB, and ISRE. The iDCs are infected at a MOI of 100 per cell. After 16 hours of incubation post infection, the iDCs are then either mock stimulated (“C”) or stimulated with lipopolysaccharide (“LPS”) at the concentration of 1 μg/ml. At 2 hours, 4 hours, 8 hours, and 24 hours post stimulation, cells are harvested and luciferase activity is measured by luminometer. FIG. 6B contains three charts depicting the time course of AP-1, NFκB, and ISRE stimulation, respectively. […] These charts also indicate different time courses of activation.
# ISRE cis-element = experiment: Adenovirus luciferase reporter in iDCs; settings: LPS 1 μg/ml, 2, 4, 8, 24 hours time course
# Procedure: as §1, §2, §3
# AP-1 cis-element [1] = experiment: Adenovirus luciferase reporter in iDCs; settings: LPS 1 μg/ml, 2, 4, 8, 24 hours time course
# Procedure: as §1, §2, §3
# CRE cis-element = experiment: Adenovirus luciferase reporter in CD14+ plate-bound macrophages; settings: LPS 1 μg/ml, 24 hours post stimulation
# Procedure: as §1
# (§4) Similar experiments were performed for CD14^+ plate-bound macrophages. In this example, macrophages are obtained as follows: First, peripheral blood mononuclear cells (“PBMCs”) are obtained by density gradient centrifugation. One density gradient centrifugation medium is FICOLL PAQUE, commercially available from Amersham Biosciences. Monocytes are then isolated from the PBMCs by magnetic depletion of non-monocytes. Finally, macrophages are isolated from the monocytes by attachment of the monocytes to a tissue culture plate in the absence of fetal bovine serum (“FBS”).
# (§5) In this example, resting cultures of isolated macrophages are then infected with a recombinant adenovirus containing the luciferase gene which is transcribed under the control of a specific cis-element. In this example, four recombinant adenovirus constructs are used to infect four separate cultures of macrophages, each construct containing one of four cis-elements: CRE, AP-1, NFκB, and ISRE. The macrophages are infected at a MOI of 100 per cell. […] At 24 hours post stimulation, cells are harvested and luciferase activity is measured by luminometer. […]
# AP-1 cis-element [2] = experiment: as above; settings: LPS 1 μg/ml, 24 hours post stimulation
# Procedure: as §1, §4, §5
substance,measurement,setting,value
lipopolysaccharide [LPS],stimulation of the NFκB cis-element (luciferase activity),NFκB cis-element,significant stimulation
same,stimulation of the ISRE cis-element (luciferase activity),ISRE cis-element,significant stimulation
same,stimulation of the AP-1 cis-element (luciferase activity),AP-1 cis-element [1],significant stimulation
same,activation of the CRE cis-element (luciferase activity),CRE cis-element,significant stimulated activation
same,activation of the AP-1 cis-element (luciferase activity),AP-1 cis-element [2],significant stimulated activation
